First the molecules themselves.
B1: AP-Sp35: human placental alkaline phosphatase with six histidine tag fused to human Sp35 residues 34-532 (protein, listed as Homo sapiens)
chain: TGCPPRCECSAQDRAVLCHRKRFVAVPEGIPTETRLLDLGKNRIKTLNQDEFASFPHLEELELNENIVSAVEPGAFNNLFNLRTLGLRSNRLKLIPLGVFTGLSNLTKLDISENKIVILLDYMFQDLYNLKSLEVGDNDLVYISHRAFSGLNSLEQLTLEKCNLTSIPTEALSHLHGLIVLRLRHLNINAIRDYSFKRLYRLKVLEISHWPYLDTMTPNCLYGLNLTSLSITHCNLTAVPYLAVRHLVYLRFLNLSYNPISTIEGSMLHELLRLQEIQLVGGQLAVVEPYAFRGLNYLRVLNVSGNQLTTLEESVFHSVGNLETLILDSNPLACDCRLLWVFRRRWRLNFNRQQPTCATPEFVQGKEFKDFPDVLLPNYFTCRRARIRDRKAQQVFVDEGHTVQFVCRADGDPPPAILWLSPRKHLVSAKSNGRLTVFPDGTLEVRYAQVQDNGTYLCIAANAGGNDSMPAHLHVRSYSPDWPHQPNKTFAFISNQPGE
modifications: alkaline phosphatase fusion partner
B2: AP-Sp35-Ig: AP-tagged Ig plus stalk domain of Sp35, amino acids 417-532 of SEQ ID NO:2 (protein, listed as Homo sapiens)
chain: RARIRDRKAQQVFVDEGHTVQFVCRADGDPPPAILWLSPRKHLVSAKSNGRLTVFPDGTLEVRYAQVQDNGTYLCIAANAGGNDSMPAHLHVRSYSPDWPHQPNKTFAFISNQPGE
modifications: AP tag fused
B3: AP-Sp35-LRR: AP-tagged LRR domain of Sp35, amino acids 34-417 of SEQ ID NO:2 (protein, listed as Homo sapiens)
chain: TGCPPRCECSAQDRAVLCHRKRFVAVPEGIPTETRLLDLGKNRIKTLNQDEFASFPHLEELELNENIVSAVEPGAFNNLFNLRTLGLRSNRLKLIPLGVFTGLSNLTKLDISENKIVILLDYMFQDLYNLKSLEVGDNDLVYISHRAFSGLNSLEQLTLEKCNLTSIPTEALSHLHGLIVLRLRHLNINAIRDYSFKRLYRLKVLEISHWPYLDTMTPNCLYGLNLTSLSITHCNLTAVPYLAVRHLVYLRFLNLSYNPISTIEGSMLHELLRLQEIQLVGGQLAVVEPYAFRGLNYLRVLNVSGNQLTTLEESVFHSVGNLETLILDSNPLACDCRLLWVFRRRWRLNFNRQQPTCATPEFVQGKEFKDFPDVLLPNYFTCRR
modifications: AP tag fused

No end group written: not given here. *: point of attachment. Biotin = O=C1N[C@H]2[C@H](CS[C@H]2CCCCC(=O)*)N1

One assay has as its system co-cultures of dorsal root ganglion (DRG) neurons and oligodendrocytes. The experiment in a line: Myelination in co-cultures of DRG neurons and oligodendrocytes. Format: cell-based, rat. As to conditions: 4-week-old treated co-cultures, anti-MBP antibody. How it is done: The role of Sp35 in myelination was examined in vitro by treating co-cultures of dorsal root ganglion (DRG) neurons and oligodendrocytes with Sp35-Fc and testing for myelination by immunohistochemistry and electron microscopy. For these studies, it was necessary to first generate primary cultures of DRG neurons and of oligodendrocytes.
Female Long Evans rat E14-E17 embryonic dorsal root ganglia were cultured as described by Plant et al., J. Neurosci. 22:6083-91 (2002). Dissected DRGs were plated on poly-L-lysine-coated cover slips (100 μg/ml) for 2 weeks in the presence of fluorodeoxyuridine for days 2-6 and days 8-11 in NLA medium containing 1×B27, 100 ng/ml NGF (Invitrogen).
A2B5^+ oligodendrocytes were prepared as described in Example 1, and were harvested by trypsinization.
For coculture studies, A2B5^+ oligodendrocytes were added to DRG neuron drop cultures in the presence or absence of 10 μg/ml Sp35-Fc. The culture medium (Neurobasal medium supplemented with B27 and 100 ng/ml NGF) was changed, and fresh Sp35-Fc was added to the cells every 3 d. To identify changes in myelination, 2-week-old cultures were stained by immunohistochemical staining (“IHC”) for neurofilaments with anti-βIII-tubulin antibody to identify axons, or anti-MBP antibody to identify oligodendrocytes., and 4-week-old cultures were subjected to SDS-PAGE followed by western blot analyses to quantify the MBP. In selected examples, cells were fixed for electron microscopy studies by adding 2.5% gluteraldehyde directly onto the cover slips. Myelinated axons in the 2-week-old cultures were quantified by counting the number of myelinated internode bundles that were derived from single MBP^+ oligodendrocytes. Samples were analyzed in duplicate. Error bars denote individual determinations. P values in all studies were determined using a one-way analysis of variance. […]
We performed experiments to address the relative contributions to the myelination process of Sp35 in DRG neurons as compared to oligodendrocytes. We infected DRG neurons, oligodendrocytes and co-cultures (prepared as described in Example 5) with the FL-Sp35 and DN-Sp35 lentiviral vectors described in Example 1 and performed immunohistochemical straining for myelinated MBP^+ cells after two weeks. A 2-fold increase in MBP levels in co-cultures where both cells express DN-Sp35 and a 2-fold decrease in MBP levels in co-cultures where both cells express FL-Sp35 was observed (FIG. 10G).
As for “Biotin-GSGCLSPRKHC (cysteine pairing not given here)”, the “expression of MBP (western blot)” value was “increased expression of MBP”.
The same measure, in the same setting: in the case of “Biotin-GSGCKHSPLRC (cysteine pairing not given here)” it was “no increase in MBP”.
Still for that read-out and setting: to “Biotin-GSGCLSPEKVC (cysteine pairing not given here)” belongs “no increase in MBP”; to “Ac-CLSPEKVC (also: cyclic, type not given here)”, “no increase in MBP”.
On to “Ac-CLSPRKHC (Ac-CLSPRKHC-NH2; also: cyclic, type not given here)”, for which the “expression of MBP (western blot)” value is “increased expression of MBP”.

In a further assay the target is T1, human ErbB2 (Homo sapiens, UniProt P04626).
T1 construct: expressed in transfected cells; host or cells: CHO cells, transient transfection with Fugene 6, assayed after 48 hours
Description: AP-Sp35 binding to ErbB2-transfected CHO cells. As to conditions: FIG. 17A; read-out: EC50 of binding to CHO cells expressing ErbB2. How it is done: ErbB2 is a member of the type I family of transmembrane receptor tyrosine kinases. The family comprises four members: epidermal growth factor receptor (EGFR or ErbB1), ErB2 (HER2 or neu), ErbB3 and ErbB4. Oligodendrocyte differentiation is positively regulated by the ErbB2 receptor tyrosine kinase. To examine the potential interaction between Sp35 and ErB2, an N-terminal AP-tagged human Sp35 protein was tested for binding to human ErbB2-transfected Chinese hamster ovary (CHO) cells.
90% confluent CHO cells were transfected with various combinations of human ErbB2 vector expression plasmid using Fugene 6 reagents (Roche). After 48 hours, the transfected cells were washed with HBH (Hank's balanced salt solution, 1 mg/ml BSA, 20 mM HEPES (pH 7.0)) and incubated for 1.5 hours at 23° C. or […] with 4 μg/ml of AP-Sp35 (human placental alkaline phosphotase (AP) with an N-terminal six histidine tag, fused to the C-terminus of human Sp35 (residues 34-532), as described in Mi et al., Nat. Neurosci. 7:221-228 (2004)) or control AP-protein in HBH. Bound AP-Sp35 was detected directly or following detergent lysis of the cells by ELISA and enzymatic activity was quantified with 4-NPP as described in Mi et al. Nat. Neurosci. 7:221-228 (2004).
In order to identify the Sp35 domain that binds ErbB2, soluble truncated forms of AP-Sp35 were tested for binding. Both the LRR domain of Sp35 (amino acids 34-417 of SEQ ID NO:2) (AP-Sp35-LRR) and the extracellular domain of Sp35 (amino acids 34-532 of SEQ ID NO:2) (AP-Sp35) bound to ErbB2 expressed in CHO cells. […] FIGS. 17B and 17C.
Usually EC50 stands for the concentration giving half of the maximal effect. On to B1, for which the EC50 was 3 nM.

The assay is the same for the next values; noted with them: FIGS. 17B and 17C.
Take B2: the “binding to ErbB2 expressed in CHO cells” value is “no detectable binding”.
The same measure, in the same setting: in the case of B1 it was “bound”; in that of B3, “bound”.

These data come from patent US20090175872A1, “Treatment of Conditions Involving Demyelination” (BIOGEN Idec MA Inc., priority 2005, published 2009).
